How the values were obtained:
NIS-repressor = experiment: EMSA pattern using KAK1 nuclear extract after epigenetic agents; format: binding, human
Experimental: EMSA: EMSA is carried out as follows: 3 μL nuclear extract, 1 μL end-labeled probe, 1 μL Poly(dI-dC)-Poly(dI-dC) (0.01 U/μL in 100 mM KCl, 20 mM HEPES, pH 8.0), 1 μL Salmon sperm DNA (500 ng/μL in nuclease-free water), 5 μL 4×EMSA buffer (400 mM KCl, 80 mM HEPES, 0.8 mM EDTA, 80% glycerol, 0.5 mM DTT) are mixed and distilled nuclease-free water is added to bring the reaction mix to 18 μL. The mixture is incubated on ice for 30 minutes, followed by addition of 2 μL of loading buffer (1×EMSA buffer, 0.25% Bromophenol Blue). A 7% non-denaturing PAGE gel is pre-run in 0.5×TBE (5.4 g/L Tris base, 2.75 g/L boric acid, 1 mM EDTA, pH 8.) for 30 minutes at 100V. The entire 20 μL EMSA reaction is loaded into one well of the polyacrylamide gel and run at 100V until the Bromophenol Blue dye has migrated to the end of the gel. The gel is dried on DEAE paper using a standard gel dryer and the dried gel is exposed to X-ray film. A retarded signal relative to free end-labeled probe indicates athe presence of a positive protein-probe interaction complex. When un-labeled DNA probe is added in the EMSA reaction mixture, loss of EMSA signal indicates the signal is probe-specific.

chromatin compaction = details: previous genomic DNase I digestion studies (Li et al. 2007); cited from earlier work
NIS transcription = details: Venkataraman et al. 1999; cited from earlier work
[1] = system: NIS-repressor (KAK1 nuclear extract); experiment: EMSA competition against radiolabeled Probe-A (NRBS-P), KAK1 nuclear extract; format: binding, human; details: 60× unlabeled annealed double-stranded oligonucleotide
Source text: FIGS. 2A and 2B show the results of EMSA analysis followed by […] to define the core sequence for NRBS-D and cross competition of NRBS-D with NRBS-P. FIG. 2A depicts EMSA using KAK1 nuclear extract probed with radiolabeled SHIFT-4 containing NRBS-D in lanes 2 to 15. Unlabeled (30×) SHIFT-4, 4.1, 4.4, 4.2, 4.3, 4.5, 4.6, 4.7, and Probe-A were included in EMSA reactions in lanes 3, 4, 5, 6, 7, 11, 12, 13, and 15, respectively. The unlabeled (60×) annealed double-stranded oligonucleotides ds-411, ds-412, ds-413, and Comp-1 were added to the EMSA reactions in lanes 8, 9, 10, and 14, respectively. Lane 2 had no additional unlabeled competitor, and lane 1 contained radiolabeled SHIFT-4 probe only. In FIG. 2B, KAK1 nuclear extract was probed with radiolabeled Probe-A. The unlabeled 30× Probe-A, 60× annealed double-stranded Comp-1, and 60× annealed double-stranded ds-414 were added in EMSA reactions in lane 3, 4, and 5, respectively. The arrows point to the probe-specific bands.
EMSA: EMSA is carried out as follows: 3 μL nuclear extract, 1 μL end-labeled probe, 1 μL Poly(dI-dC)-Poly(dI-dC) (0.01 U/μL in 100 mM KCl, 20 mM HEPES, pH 8.0), 1 μL Salmon sperm DNA (500 ng/μL in nuclease-free water), 5 μL 4×EMSA buffer (400 mM KCl, 80 mM HEPES, 0.8 mM EDTA, 80% glycerol, 0.5 mM DTT) are mixed and distilled nuclease-free water is added to bring the reaction mix to 18 μL. […]

hNIS = experiment: Endogenous hNIS mRNA / transcription in thyroid cancer cells (cell line not given); format: cell-based, human
Source text: Multiple cellular and nuclear factors are reported to be important for hNIS transcription, including: TSH (thyrotropin)/receptor (TSHr) (Riedel, et al. 2001), TTF-1 (Schmitt, et al. 2001), and Pax-8 (Pasca di Magliano, et al. 2000), but there are no clear examples of repressing transcription factors in thyroid cells or thyroid carcinomas. […] We also characterized NIS-repressor and investigated the identities of its components and mechanisms of its activity. This involved defining NRBS-P to a narrower region of hNIS promoter and utilizing it to probe nuclear extract, analyzing the probe-bound proteins with liquid chromatography coupled with tandem mass spectrometry (LC/MS/MS), to characterize NIS-repressor components. […] Pharmacological inhibition of PARP-1 activity with PJ34, a PARP-1 inhibitor, stimulated endogenous hNIS mRNA levels, providing evidence that PARP-1 acts as a negative regulatory factor for hNIS transcription and is a likely component of the NIS-repressor complex.
In summary, a second core sequence in the human sodium-iodine symporter (hNIS) promoter, NRBS-D, which is a binding site for a trans-active transcriptional repressor, NIS-repressor has been defined. […] A known inhibitor of PARP-1 enzymatic activity, PJ34, causes increased endogenous transcription of hNIS in genotypically verified thyroid cancer cells.

NIS promoter constructs = experiment: Luciferase activity from NIS promoter constructs; format: cell-based, human
Source text: (§1) Furthermore. […] PJ34 inhibition of PARP1 enzymatic activity may compromise the assembly, stability, or activity of the NIS-repressor protein complex.

[2] = system: hNIS transcription in Cal-62 cells; experiment: Endogenous hNIS transcription in Cal-62 cells; format: cell-based, human
Source text: as §1

[3] = system: hNIS transcription in KAK1 cells; experiment: Endogenous hNIS transcription in KAK1 cells; format: cell-based, human
Source text: as §1

Compound | effect on EMSA pattern (NIS-repressor) | effect on chromatin compaction (chromatin compaction) | NIS transcription (NIS transcription) | other results
CCCC(=O)[O-].[Na+] [sodium butyrate] | did not alter | failed to demonstrate any effect | restore | –
Nc1ncn([C@@H]2O[C@H](CO)[C@@H](O)[C@H]2O)c(=O)n1 [5-azacytidine] | did not alter | failed to demonstrate any effect | restore | –
ds-414: annealed double-stranded oligonucleotide 5′-ccttgttacagatggggaaactaaggccca-3′, −987 to −958 (SEQ ID NO.: 6) (sense CCTTGTTACAGATGGGGAAACTAAGGCCCA; annealed double-stranded unlabeled competitor, further chemistry not given here) | – | – | – | competition against radiolabeled Probe-A in EMSA [1]: strong competition
CN(C)CC(=O)Nc1ccc2[nH]c(=O)c3ccccc3c2c1 [PJ34] | – | – | – | endogenous transcription of hNIS (hNIS; genotypically verified thyroid cancer cells): increased; endogenous hNIS mRNA levels (hNIS; pharmacological inhibition of PARP-1 activity): stimulated; luciferase activity from NIS promoter constructs (NIS promoter constructs): effectively stimulated; endogenous hNIS transcription [2]: stimulated; endogenous hNIS transcription [3]: stimulated

— patent US20110229878A1, “HUMAN CONSENSUS SODIUM-IODIDE SYMPORTER REPRESSOR (NIS-REPRESSOR) BINDING SITE” (priority 2010, published 2011)
